Data as given in patent US9682976B2, “Protein kinase C inhibitors and uses thereof” (Rigel Pharmaceuticals, Inc., priority 2012, dated 2017).

Tested on: PKC mediated IL-2 production
Assay: IL-2 ELISA, human primary T cell, anti CD3+CD28+
Assay type: cell-based
Details: Homo sapiens, T-cell, 24 h, human primary T cells stimulated with αCD3 and αCD28, 24 hours
Method in brief: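 IL-2 was quantified by ELISA in 24 h supernatants from primary human T cells given a 1 h compound pre-treatment at 37° C. These cells had been expanded from blood mononuclear cells on αCD3/αCD28 with IL-2, and the IL-2 was removed by washing. Stimulation used plate-bound αCD3 ([…]) plus αCD28 (5 μg/ml); the counter assay used PMA (0.5 ng/ml) with ionomycin (0.1 uM) instead.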

First: CC1(C)CC[C@H]2C[C@@H](Nc3nc(Nc4ccc(N5CC6(COC6)C5)c(OC(F)F)c4)ncc3F)CCN21 [Compound 302, N2-(3-(Difluoromethoxy)-4-(2-oxa-6-azaspiro[3.3]heptan-6-yl)phenyl)-N4-((7S,8aS)-3,3-dimethyloctahydroindolizin-7-yl)-5-fluoropyrimidine-2,4-diamine]
Second: CC1(C)CC[C@H]2C[C@@H](Nc3nc(Nc4ccc(OC5CC(O)C5)c(OC(F)F)c4)ncc3F)CCN21 (stereo partly drawn) [Compound 306, 3-(2-(Difluoromethoxy)-4-((4-(((7S,8aS)-3,3-dimethyloctahydroindolizin-7-yl)amino)-5-fluoropyrimidin-2-yl)amino)phenoxy)cyclobutan-1-ol]
The EC50 of the first is higher: 500 to 1000 nM for the first, 100 to 500 nM for the second. The second is the more potent here.

`CC1(C)C[C@H](Nc2nc(Nc3ccc4c(c3)OCC(=O)N4CC3CC3)ncc2F)C[C@@H]2CCCN21` [Compound 104, 4-(cyclopropylmethyl)-7-((4-(((7R,8aS)-5,5-dimethyloctahydroindolizin-7-yl)amino)-5-fluoropyrimidin-2-yl)amino)-2H-benzo[b][1,4]oxazin-3(4H)-one] and `CC1(C)C[C@H](Nc2nc(Nc3ccc(N4CCC(O)CC4)c(C#N)c3)ncc2F)C[C@@H]2CCCN21` [Compound 107, 5-((4-(((7R,8aS)-5,5-dimethyloctahydroindolizin-7-yl)amino)-5-fluoropyrimidin-2-yl)amino)-2-(4-hydroxypiperidin-1-yl)benzonitrile] fall in the same range of EC50: 100 to 500 nM for the first, 100 to 500 nM for the second.

First: CC1(C)C[C@H](Nc2nc(Nc3ccc(N4CCC5(CC4)COC5)c(C#N)c3)ncc2F)C[C@@H]2CCCN21 [Compound 100, 5-(4-((7R,8aS)-5,5-dimethyloctahydroindolizin-7-ylamino)-5-fluoropyrimidin-2-ylamino)-2-(2-oxa-7-azaspiro[3.5]nonan-7-yl)benzonitrile]
Second: CC1(C)C[C@H](Nc2nc(Nc3ccc(O)c(C#N)c3)ncc2F)C[C@@H]2CCCN21 [Compound 168, 5-((4-(((7R,8aS)-5,5-dimethyloctahydroindolizin-7-yl)amino)-5-fluoropyrimidin-2-yl)amino)-2-hydroxybenzonitrile]
The EC50 of the first is lower: 100 to 500 nM for the first, 1000 to 10000 nM for the second.

`CC1(C)CC(Nc2nc(Nc3ccc(O[C@@H]4CCOC4)c(C#N)c3)ncc2F)CC2CCCN21` (mixture of isomers) [Compound 57, 2-((R)-tetrahydrofuran-3-yloxy)-5-(5-fluoro-4-(octahydro-5,5-dimethylindolizin-7-ylamino)pyrimidin-2-ylamino)benzonitrile] and `Cn1nnn(-c2cc(Nc3ncc(F)c(N[C@@H]4C[C@@H]5CCCN5C(C)(C)C4)n3)ccc2OC2CCOCC2)c1=O` (stereo in doubt) [Compound 52, 1-(5-(5-fluoro-4-(octahydro-5,5-dimethylindolizin-7-ylamino)pyrimidin-2-ylamino)-2-(tetrahydro-2H-pyran-4-yloxy)phenyl)-4-methyl-1H-tetrazol-5(4H)-one] fall in the same range of EC50: 100 to 500 nM for the first, 100 to 500 nM for the second.

`C[C@H](CO)Oc1cc(F)c(Nc2ncc(F)c(N[C@@H]3C[C@@H]4CCCN4C(C)(C)C3)n2)cc1-n1nnn(C)c1=O` [Compound 99] and `C[C@@H](CO)Oc1ccc(Nc2ncc(F)c(N[C@@H]3C[C@@H]4CCCN4C(C)(C)C3)n2)cc1-n1nnn(C)c1=O` [Compound 135, 1-(5-((4-(((7R,8aS)-5,5-dimethyloctahydroindolizin-7-yl)amino)-5-fluoropyrimidin-2-yl)amino)-2-(((S)-1-hydroxypropan-2-yl)oxy)phenyl)-4-methyl-1,4-dihydro-5H-tetrazol-5-one] cannot be ordered by EC50: under 100 nM for the first, under 100 nM for the second.

Compared with `CNC(=O)c1ccc(Nc2ncc(F)c(N[C@@H]3C[C@@H]4CCCN4C(C)(C)C3)n2)cc1Cl` [Compound 327, 4-(4-((7R,8aS)-octahydro-5,5-dimethylindolizin-7-ylamino)-5-fluoropyrimidin-2-ylamino)-2-chloro-N-methylbenzamide], `CC1(C)C[C@H](Nc2nc(Nc3ccc(OC4CCNCC4O)c(Cl)c3)ncc2F)C[C@@H]2CCCN21` (stereo partly drawn) [Compound 124] is lower in EC50: 500 to 1000 nM for the first, 100 to 500 nM for the second. The second is the more potent here.

First: Cn1nnn(-c2cc(Nc3ncc(F)c(N[C@@H]4C[C@@H]5CCCN5C(C)(C)C4)n3)c(F)cc2OCC2(CO)COC2)c1=O [Compound 165, 1-(5-((4-(((7R,8aS)-5,5-dimethyloctahydroindolizin-7-yl)amino)-5-fluoropyrimidin-2-yl)amino)-4-fluoro-2-((3-(hydroxymethyl)oxetan-3-yl)methoxy)phenyl)-4-methyl-1,4-dihydro-5H-tetrazol-5-one]
Second: Cn1nnn(-c2cc(Nc3ncc(F)c(N[C@@H]4C[C@@H]5CCCN5C(C)(C)C4)n3)c(F)cc2OCC2CCOCC2)c1=O [Compound 170, 1-(5-((4-(((7R,8aS)-5,5-dimethyloctahydroindolizin-7-yl)amino)-5-fluoropyrimidin-2-yl)amino)-4-fluoro-2-((tetrahydro-2H-pyran-4-yl)methoxy)phenyl)-4-methyl-1,4-dihydro-5H-tetrazol-5-one]
The EC50 of the first is higher: 500 to 1000 nM for the first, 100 to 500 nM for the second. The second is the more potent here.

`Cc1nnnn1-c1cc(Nc2ncc(F)c(N[C@@H]3C[C@@H]4CCCN4C(C)(C)C3)n2)c(F)cc1OC1COC1` [Compound 249, 5-fluoro-N2-(2-fluoro-5-(5-methyl-1H-tetrazol-1-yl)-4-(oxetan-3-yloxy)phenyl)-N4-((7R,8aS)-octahydro-5,5-dimethylindolizin-7-yl)pyrimidine-2,4-diamine] and `COc1ccc(Nc2ncc(F)c(N[C@@H]3C[C@@H]4CCCN4C(C)(C)C3)n2)cc1-n1nnnc1C` [Compound 140, N4-((7R,8aS)-5,5-dimethyloctahydroindolizin-7-yl)-5-fluoro-N2-(4-methoxy-3-(5-methyl-1H-tetrazol-1-yl)phenyl)pyrimidine-2,4-diamine] cannot be ordered by EC50: under 100 nM for the first, under 100 nM for the second.

First: COc1ccc(Nc2ncc(Cl)c(N[C@@H]3C[C@@H]4CCCN4C(C)(C)C3)n2)cc1-n1nnnc1C [Compound 151, 5-chloro-N4-((7R,8aS)-5,5-dimethyloctahydroindolizin-7-yl)-N2-(4-methoxy-3-(5-methyl-1H-tetrazol-1-yl)phenyl)pyrimidine-2,4-diamine]
Second: CC1(C)C[C@H](Nc2nc(Nc3ccc(O)c(-n4cnnn4)c3)ncc2F)C[C@@H]2CCCN21 [Compound 196, 4-((4-(((7R,8aS)-5,5-dimethyloctahydroindolizin-7-yl)amino)-5-fluoropyrimidin-2-yl)amino)-2-(1H-tetrazol-1-yl)phenol]
The EC50 of the first is lower: under 100 nM for the first, 100 to 500 nM for the second.

`CC1(C)C[C@H](Nc2nc(Nc3ccc(OC4CCNCC4)c(C(F)(F)F)c3)ncc2F)C[C@@H]2CCCN21` [Compound 118, N^4-((7R,8aS)-5,5-dimethyloctahydroindolizin-7-yl)-5-fluoro-N^2-(4-(piperidin-4-yloxy)-3-(trifluoromethyl)phenyl)pyrimidine-2,4-diamine] and `CC1(C)CC[C@H]2C[C@@H](Nc3nc(Nc4ccc(OCCCO)c(OC(F)F)c4)ncc3F)CCN21` [Compound 307, 3-(2-(Difluoromethoxy)-4-((4-(((7S,8aS)-3,3-dimethyloctahydroindolizin-7-yl)amino)-5-fluoropyrimidin-2-yl)amino)phenoxy)propan-1-ol] fall in the same range of EC50: 100 to 500 nM for the first, 100 to 500 nM for the second.

Compared with `CN(C)CCOc1cc(F)c(N(CCN(C)C)c2ncc(F)c(N[C@@H]3C[C@@H]4CCCN4C(C)(C)C3)n2)cc1-n1nnn(C)c1=O` [Compound 193, 1-(2-(2-(dimethylamino)ethoxy)-5-((2-(dimethylamino)ethyl)(4-(((7R,8aS)-5,5-dimethyloctahydroindolizin-7-yl)amino)-5-fluoropyrimidin-2-yl)amino)-4-fluorophenyl)-4-methyl-1,4-dihydro-5H-tetrazol-5-one], `CC(C)OC(=O)COc1cc(F)c(Nc2ncc(F)c(N[C@@H]3C[C@@H]4CCCN4C(C)(C)C3)n2)cc1-n1nnn(C)c1=O` [Compound 323, isopropyl 2-(4-(4-((7R,8aS)-octahydro-5,5-dimethylindolizin-7-ylamino)-5-fluoropyrimidin-2-ylamino)-5-fluoro-2-(4,5-dihydro-4-methyl-5-oxotetrazol-1-yl)phenoxy)acetate] is higher in EC50: 100 to 500 nM for the first, 1000 to 10000 nM for the second. The first is the more potent here.

`[2H]C1(Oc2ccc(Nc3ncc(F)c(N[C@H]4CCN5[C@@H](CCC5(C)C)C4)n3)cc2-n2nnn(C)c2=O)CC(O)C1` (stereo partly drawn) [Compound 309, 1-(5-((4-(((7S,8aS)-3,3-Dimethyloctahydroindolizin-7-yl)amino)-5-fluoropyrimidin-2-yl)amino)-2-(3-hydroxycyclobutoxy-1-d)phenyl)-4-methyl-1,4-dihydro-5H-tetrazol-5-one] and `Cn1nnn(-c2cc(Nc3ncc(F)c(N[C@@H]4C[C@@H]5C[C@H](F)CN5C(C)(C)C4)n3)c(F)cc2C2CC2)c1=O` [Compound 67, 1-(5-(4-((2S,7R,8aR)-2-fluoro-octahydro-5,5-dimethylindolizin-7-ylamino)-5-fluoropyrimidin-2-ylamino)-2-cyclopropyl-4-fluorophenyl)-4-methyl-1H-tetrazol-5(4H)-one] fall in the same range of EC50: 100 to 500 nM for the first, 100 to 500 nM for the second.

With `Cn1nnn(-c2cc(Nc3ncc(F)c(N[C@@H]4C[C@@H]5CCCN5C(C)(C)C4)n3)c(F)cc2OCCN2CCOCC2)c1=O` [Compound 195, 1-(5-((4-(((7R,8aS)-5,5-dimethyloctahydroindolizin-7-yl)amino)-5-fluoropyrimidin-2-yl)amino)-4-fluoro-2-(2-morpholinoethoxy)phenyl)-4-methyl-1,4-dihydro-5H-tetrazol-5-one] the EC50 was 500 to 1000 nM.

Same assay, conditions: human primary T cells stimulated with αCD3 and αCD28, 24 hours

First: CC1(O)COc2ccc(Nc3ncc(F)c(N[C@@H]4C[C@@H]5CCCN5C(C)(C)C4)n3)cc2-n2nnnc21 (stereo partly drawn) [Compound 127]
Second: Cn1nnn(-c2cc(Nc3ncc(F)c(N[C@@H]4C[C@@H]5CCCN5C(C)(C)C4)n3)c(F)cc2OCCN)c1=O [Compound 228, 1-(2-(2-aminoethoxy)-5-((4-(((7R,8aS)-5,5-dimethyloctahydroindolizin-7-yl)amino)-5-fluoropyrimidin-2-yl)amino)-4-fluorophenyl)-4-methyl-1,4-dihydro-5H-tetrazol-5-one]
The EC50 of the first is lower: under 100 nM for the first, 100 to 500 nM for the second.
